Where a name gives a salt, the structure may show the parent alone.

The target in the assay is T1, Lp-PLA2 from plasma (pooled human plasma) (Homo sapiens, UniProt Q13093).
T1 construct: 8 μL pooled human plasma; from tissue; host or cells: pooled human plasma
T1 sequence (Q13093 22-441): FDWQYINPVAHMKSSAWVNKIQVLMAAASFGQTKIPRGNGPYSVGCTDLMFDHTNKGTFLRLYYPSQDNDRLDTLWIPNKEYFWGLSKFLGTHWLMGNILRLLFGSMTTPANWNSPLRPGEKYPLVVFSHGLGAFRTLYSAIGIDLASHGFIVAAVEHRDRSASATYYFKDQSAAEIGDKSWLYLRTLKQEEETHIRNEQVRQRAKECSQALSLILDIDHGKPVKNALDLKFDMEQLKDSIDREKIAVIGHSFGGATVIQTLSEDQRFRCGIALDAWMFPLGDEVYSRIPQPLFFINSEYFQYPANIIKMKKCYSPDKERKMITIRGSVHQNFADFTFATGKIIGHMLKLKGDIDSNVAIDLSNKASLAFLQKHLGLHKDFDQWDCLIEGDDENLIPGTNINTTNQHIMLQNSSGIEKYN
In words: Lp-PLA2 human plasma assay (Thio-PAF assay). Particulars: text thresholds, read-out: pIC50 values in the thio-PAF assay (converted). It counts as biochemical. From the text: (3) Lipoprotein-Associated Phospholipase A2 (Lp-PLA2) Human Plasma Assay (Also Referred to as “Thio-PAF Assay”)
The human plasma assay utilizes a thioester analog of PAF (phosphatidylcholine), where hydrolysis yields to the formation of a phospholipid containing a free thiol group. The amount of thiol is quantitated continuously by reacting with CPM (7-diethylamino-3-(4′-maleimidylphenyl)-4-methylcoumarin), a maleimide which increases in fluoresence after Michael addition of thiols. This assay may detect the activity of Lp-PLA2 from plasma, as determined by specific inhibition by Lp-PLA2 inhibitors.
The thio-PAF assay was run as a quenched 15 μL assay. Compounds source plate was prepared by making 1:3 (by volume) serial dilution of the compounds into pure DMSO on 384-well microplate. 0.01 μL of compounds on compound source plate were transferred to 384 well Greiner 784076 (black) low-volume plates by ECHO liquid dispenser. 8 μL pooled human plasma, which was previously aliquoted and frozen, was added. Plates were centrifuged for 10 sec at 500 rpm. After 30 minutes preincubation, 2 μL of substrate (2.5 mM thio-PAF, 3.2 mM NEM (N-ethylmaleimide) [made fresh daily in DMSO], and 32 μM CPM [from a DMSO stock] in assay buffer of 50 mM HEPES, pH7.4, 150 mM NaCl, 1 mM CHAPS was added to 384 well Greiner 784076 (black) low-volume plates by BRAVO liquid handling station. Plates were centrifuged for 10 sec at 500 rpm. Plate was covered to protect from light and incubated for 2 min at room temperature. Reaction was quenched with 5 μL of 5% aqueous trifluoroacetic acid (TFA). Plates were covered to protect from light and incubated for 40 min at room temperature. Plates were read at ex: 380/em: 485 using-Envision microplate reader. PIC50 data, curve and QC analysis was conducted by using XLFit module in Excel.
Regarding `COc1ncc(Cc2cn(C)c(CCc3ccc(Oc4ccc(Cl)c(C(F)(F)F)c4)cc3)nc2=O)cn1` [E3, 2-[2-(4-{[4-Chloro-3-(trifluoromethyl)phenyl]oxy}phenyl)ethyl]-1-methyl-5-{[2-(methyloxy)-5-pyrimidinyl]methyl}-4(1H)-pyrimidinone], the IC50 is not above 1 µM.
For the compound `Cn1cc(Cc2cncnc2)c(=O)nc1CCc1ccc(Oc2ccc(Cl)c(C(F)(F)F)c2)cc1` [E4, 2-[2-(4-{[4-Chloro-3-(trifluoromethyl)phenyl]oxy}phenyl)ethyl]-1-methyl-5-(5-pyrimidinylmethyl)-4(1H)-pyrimidinone], the IC50 was not above 1 µM.
For `COc1ncc(Cc2c[nH]c(NCCc3ccc(Oc4ccc(Cl)c(C(F)(F)F)c4)cc3)nc2=O)cn1` [E9, 2-{[2-(4-{[4-Chloro-3-(trifluoromethyl)phenyl]oxy}phenyl)ethyl]amino}-5-{[2-(methyloxy)-5-pyrimidinyl]methyl}-4(1H)-pyrimidinone], the IC50 is not above 0.1 µM.
In the case of `N#Cc1cc(CSc2nc(=O)c(Cc3cncnc3)c[nH]2)ccc1Oc1ccc(C(F)(F)F)cn1` [E73, 5-({[4-oxo-5-(5-pyrimidinylmethyl)-1,4-dihydro-2-pyrimidinyl]thiol}methyl)-2-{[5-(trifluoromethyl)-2-pyridinyl]oxy}benzonitrile], the IC50 was not above 0.1 µM.
As for `Cn1cc(Cc2cncnc2)c(=O)nc1SCc1ccc(Oc2ccc(Cl)c(C(F)(F)F)c2)c(C#N)c1` [E79, 2-{[4-chloro-3-(trifluoromethyl)phenyl]oxy}-5-({[1-methyl-4-oxo-5-(5-pyrimidinylmethyl)-1,4-dihydro-2-pyrimidinyl]thio}methyl)benzonitrile], the IC50 is not above 0.1 µM.
On to `Cn1cc(Cc2cncnc2)c(=O)nc1SCc1ccc(Oc2ccc(F)c(C(F)(F)F)c2)c(C#N)c1` [E88, 2-{[4-fluoro-3-(trifluoromethyl)phenyl]oxy}-5-({[1-methyl-4-oxo-5-(5-pyrimidinylmethyl)-1,4-dihydro-2-pyrimidinyl]thio}methyl)benzonitrile], for which the IC50 is not above 0.1 µM.
For `Cn1cc(Cc2cn(C)c(SCCc3ccc(Oc4cccc(C(F)(F)F)c4)c(C#N)c3)nc2=O)cn1` [E92, 5-[2-({1-methyl-5-[(1-methyl-1H-pyrazol-4-yl)methyl]-4-oxo-1,4-dihydro-2-pyrimidinyl}thio)ethyl]-2-{[3-(trifluoromethyl)phenyl]oxy}benzonitrile, trifluoroacetic acid salt], the IC50 is not above 0.1 µM.
As to `Cn1cc(Cc2cncnc2)c(=O)nc1SCc1ccc(Oc2ccc(C(F)(F)F)cn2)c(C#N)c1` [E105, 5-({[1-methyl-4-oxo-5-(5-pyrimidinylmethyl)-1,4-dihydro-2-pyrimidinyl]thio}methyl)-2-{[5-(trifluoromethyl)-2-pyridinyl]oxy}benzonitrile], the IC50 was not above 0.1 µM.
As to `Cn1cc(Cc2cn(C)c(SCCc3ccc(Oc4ccc(Cl)c(C(F)(F)F)c4)cc3)nc2=O)cn1` [E113, 2-{[2-(4-{[4-chloro-3-(trifluoromethyl)phenyl]oxy}phenyl)ethyl]thio}-1-methyl-5-[(1-methyl-1H-pyrazol-4-yl)methyl]-4(1H)-pyrimidinone], the IC50 is not above 0.1 µM.
Then `O=c1nc(OCCc2ccc(Oc3ccc(Cl)c(C(F)(F)F)c3)cc2)[nH]cc1Cc1cnc(C(F)(F)F)nc1` [E126, 2-{[2-(4-{[4-chloro-3-(trifluoromethyl)phenyl]oxy}phenyl)ethyl]oxy}-5-{[2-(trifluoromethyl)-5-pyrimidinyl]methyl}-4(1H)-pyrimidinone], with not above 1 µM.
Consider `COc1ncc(Cc2c[nH]c(OCCc3ccc(Oc4ccc(C)c(F)c4)cc3)nc2=O)cn1` [E157, 2-[(2-{4-[(3-fluoro-4-methylphenyl)oxy]phenyl}ethyl)oxy]-5-{[2-(methyloxy)-5-pyrimidinyl]methyl}-4(1H)-pyrimidinone], for which the IC50 was not above 1 µM.
Consider `COc1ncc(Cc2c[nH]c(OCCc3ccc(Oc4cc(Cl)cc(C(F)(F)F)c4)cc3)nc2=O)cn1` [E165, 2-{[2-(4-{[3-chloro-5-(trifluoromethyl)phenyl]oxy}phenyl)ethyl]oxy}-5-{[2-(methyloxy)-5-pyrimidinyl]methyl}-4(1H)-pyrimidinone], for which the IC50 is not above 0.1 µM.
`COc1ncc(Cc2c[nH]c(OCCc3ccc(Oc4cnc(C(F)(F)F)nc4)c(F)c3)nc2=O)cn1` [E167, 2-(3-fluoro-4-((2-(trifluoromethyl)pyrimidin-5-yl)oxy)phenethoxy)-5-((2-methoxypyrimidin-5-yl)methyl)pyrimidin-4(1H)-one]: the IC50 is not above 0.1 µM.
As for `O=c1nc(OCCc2cc(F)c(Oc3cnc(C(F)(F)F)nc3)c(F)c2)[nH]cc1Cc1cncnc1` [E168], the IC50 was not above 0.1 µM.
On to `COc1ncc(Cc2c[nH]c(OCCc3cc(F)c(Oc4cnc(C(F)(F)F)nc4)c(F)c3)nc2=O)cn1` [E169, 2-(3,5-difluoro-4-((2-(trifluoromethyl)pyrimidin-5-yl)oxy)phenethoxy)-5-((2-methoxypyrimidin-5-yl)methyl)pyrimidin-4(1H)-one], for which the IC50 was not above 0.1 µM.
Then `CCc1cn(C)c(OCCc2ccc(Oc3ccc(Cl)c(C(F)(F)F)c3)c(F)c2)nc1=O` [E174, 2-{[2-(4-{[4-chloro-3-(trifluoromethyl)phenyl]oxy}-3-fluorophenyl)ethyl]oxy}-5-ethyl-1-methyl-4(1H)-pyrimidinone], with not above 0.1 µM.
The figure for `CCc1cn(C)c(OCCc2cc(F)c(Oc3ccc(Cl)c(C(F)(F)F)c3)c(F)c2)nc1=O` [E175, 2-{[2-(4-{[4-chloro-3-(trifluoromethyl)phenyl]oxy}-3,5-difluorophenyl)ethyl]oxy}-5-ethyl-1-methyl-4(1H)-pyrimidinone] is not above 0.1 µM.
Then `COc1ncc(Cc2c[nH]c(OCCc3cc(F)c(Oc4ccc(Cl)c(C(F)(F)F)c4)c(F)c3)nc2=O)cn1` [E176, 2-{[2-(4-{[4-chloro-3-(trifluoromethyl)phenyl]oxy}-3,5-difluorophenyl)ethyl]oxy}-5-{[2-(methyloxy)-5-pyrimidinyl]methyl}-4(1H)-pyrimidinone], with not above 0.1 µM.
For `O=c1nc(OCCc2ccc(Oc3ccc(Cl)c(OC(F)(F)F)c3)cc2)[nH]cc1Cc1cncnc1` [E177, 2-(4-(4-chloro-3-(trifluoromethoxy)phenoxy)phenethoxy)-5-(pyrimidin-5-ylmethyl)pyrimidin-4(1H)-one], the IC50 was not above 0.1 µM.
In the case of `COc1ncc(Cc2c[nH]c(OCCc3ccc(Oc4ccc(Cl)c(OC(F)(F)F)c4)cc3)nc2=O)cn1` [E178, 2-(4-(4-chloro-3-(trifluoromethoxy)phenoxy)phenethoxy)-5-((2-methoxypyrimidin-5-yl)methyl)pyrimidin-4(1H)-one], the IC50 was not above 0.1 µM.
With `O=c1nc(NCCc2ccc(Oc3cccc(C(F)(F)F)c3)cc2)[nH]cc1Cc1cncnc1` [E185, 5-Pyrimidin-5-ylmethyl-2-{2-[4-(3-trifluoromethyl-phenoxy)-phenyl]-ethylamino}-1H-pyrimidin-4-one], the IC50 was not above 1 µM.
The figure for `COc1ncc(Cc2c[nH]c(NCCc3ccc(Oc4ccc(C(F)(F)F)cn4)cc3)nc2=O)cn1` [E186, 5-(2-methoxy-pyrimidin-5-ylmethyl)-2-{2-[4-(5-trifluoromethyl-pyridin-2-yloxy)phenyl]-ethylamino}-1H-pyrimidin-4-one] is not above 1 µM; for `CN(CCc1ccc(Oc2cccc(C(F)(F)F)c2)cc1)c1nc(=O)c(Cc2cncnc2)c[nH]1` [E187, 2-(Methyl-{2-[4-(3-trifluoromethyl-phenoxy)-phenyl]-ethyl}-amino)-5-pyrimidin-5-ylmethyl-1H-pyrimidin-4-one] it is not above 1 µM; for `COc1ncc(Cc2c[nH]c(NCCc3ccc(Oc4cccc(C(F)(F)F)c4)cc3)nc2=O)cn1` [E193, 5-(2-methoxy-pyrimidin-5-ylmethyl)-2-{2-[4-(3-trifluoromethyl-phenoxy)phenyl]-ethylamino}-1H-pyrimidin-4-one] it is not above 1 µM.
Then `O=c1nc(NCCc2ccc(Oc3ccc(Cl)cc3)cc2)[nH]cc1Cc1cncnc1` [E194, 2-{2-[4-(4-Chloro-phenoxy)-phenyl]-ethylamino}-5-pyrimidin-5-ylmethyl-1H-pyrimidin-4-one], with not above 1 µM; and `Cc1ncc(Cc2c[nH]c(NCCc3ccc(Oc4ccc(C(F)(F)F)cn4)c(C#N)c3)nc2=O)cn1` [E203, 5-{2-[5-(2-Methyl-pyrimidin-5-ylmethyl)-4-oxo-1,4-dihydro-pyrimidin-2-ylamino]-ethyl}-2-(5-trifluoromethyl-pyridin-2-yloxy)-benzonitrile], with not above 0.1 µM.

The record behind these values is patent US8637536B2, “Pyrimidinone compounds for use in the treatment of diseases or conditions mediated by Lp-PLA2” (Glaxo Group Limited, priority 2010, dated 2014).
